In US7683168B2, “Compositions of novel opioid compounds and method of use thereof” (priority 2005, dated 2010):

Tests used:
human delta receptor = biological target: T1, human delta receptor (Homo sapiens, UniProt P41143); experiment: radioligand binding, human delta receptor, HEK-293 cell membranes; conditions: cell not marked (rat), species not given, read-out: δ
T1 construct: purchased Perkin Elmer, Boston, Mass; 6110549; host or cells: HEK-293 cells

human mu opioid receptor = biological target: T2, human mu opioid receptor (Homo sapiens, UniProt P35372); experiment: radioligand binding, human mu opioid receptor, CHO cell membranes; conditions: species not given, read-out: μ
T2 construct: purchased Perkin Elmer, Boston, Mass; 6110535; host or cells: CHO cells
T2 sequence (P35372 whole entry): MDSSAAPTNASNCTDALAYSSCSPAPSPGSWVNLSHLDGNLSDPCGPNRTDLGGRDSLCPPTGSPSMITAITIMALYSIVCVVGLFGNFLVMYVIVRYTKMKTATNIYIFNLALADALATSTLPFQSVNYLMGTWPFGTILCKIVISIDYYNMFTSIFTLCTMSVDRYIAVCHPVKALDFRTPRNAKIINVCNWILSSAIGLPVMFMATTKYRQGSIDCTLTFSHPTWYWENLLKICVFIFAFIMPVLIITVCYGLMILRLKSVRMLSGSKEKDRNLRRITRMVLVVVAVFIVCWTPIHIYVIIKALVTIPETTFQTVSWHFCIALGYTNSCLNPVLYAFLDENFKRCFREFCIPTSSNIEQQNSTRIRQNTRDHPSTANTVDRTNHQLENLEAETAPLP

mouse vas deferens = experiment: electrically stimulated mouse vas deferens (MVD) ED50; type: cell-based; conditions: ED50, inhibition of electrically induced contractions
[1] = tested on: seizure-like convulsions in mice; experiment: mouse seizure-like convulsions; type: in vivo
Protocol: Mouse Seizure-Like Convulsions and antinociception: The central (CNS) effects of the compound were tested with central delta receptor mediated seizure-like convulsions and central mu opioid receptor mediated antinociceptive effects in mice. Male CD-1 mice (Charles River, Raleigh, N.C.) weighing 20-25 g were used to determine the seizure-like convulsion and antinociception activities for compounds.
They were then observed for seizure-like convulsions for one hour following the treatment. A seizure-like event was recorded if a mouse had uncontrollable clonic (or tonic/clonic) muscle movements that encompassed its entire body, usually followed by a brief cataleptic period. Catalepsy was determined by placing the animal's front paws on a horizontal bar held 2-3 inches from the cage floor. Cataleptic animals made no attempt to remove their paws.

T1 sequence (P41143 whole entry): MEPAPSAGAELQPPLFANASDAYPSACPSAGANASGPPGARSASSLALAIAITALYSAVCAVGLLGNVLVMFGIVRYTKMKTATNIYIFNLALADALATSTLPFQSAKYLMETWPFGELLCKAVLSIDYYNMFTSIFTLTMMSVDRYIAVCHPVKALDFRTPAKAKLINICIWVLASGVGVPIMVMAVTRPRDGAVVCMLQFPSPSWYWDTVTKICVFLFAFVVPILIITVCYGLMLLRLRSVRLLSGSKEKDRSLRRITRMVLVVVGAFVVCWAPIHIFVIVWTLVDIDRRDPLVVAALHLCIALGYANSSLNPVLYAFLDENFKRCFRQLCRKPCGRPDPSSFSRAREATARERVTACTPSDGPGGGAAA

Compound	Ki (human delta receptor)	Ki (human mu opioid receptor)	EC50 (mouse vas deferens)	Seiz. ([1]; 10 mg/kg IV)	Seiz. ([1]; 60 mg/kg PO)
CCOC(=O)N1CCN(C(=O)c2cccc([C@H](c3cccc(O)c3)N3C[C@@H](C)N(Cc4ccccc4)C[C@@H]3C)c2)CC1 [Example 62, 4-{3-[(R)-((2S,5R)-4-Benzyl-2,5-dimethyl-piperazin-1-yl)-(3-hydroxy-phenyl)-methyl]-benzoyl}-piperazine-1-carboxylic acid ethyl ester]	2.2 nM	1.7 nM	6.78 nM	70% 10 mg/kg IV	–
C=CCN1C[C@H](C)N([C@@H](c2cccc(O)c2)c2cccc(C(=O)N3CCC(=CC(=O)O)CC3)c2)C[C@H]1C [Example 138, (1-{3-[(R)-((2S,5R)-4-allyl-2,5-dimethyl-1-piperazinyl)(3-hydroxyphenyl)methyl]-benzoyl}-4-piperidinylidene)acetic acid]	0.63 nM	7.4 nM	1.35 nM	0% 10 mg/kg IV	–
C=CCN1C[C@H](C)N([C@@H](c2cccc(O)c2)c2cccc(C(=O)N3CCC(NCc4ccc(C(=O)O)cc4)CC3)c2)C[C@H]1C [Example 140, 4-[(1-{3-[(R)-((2S,5R)-4-Allyl-2,5-dimethyl-piperazin-1-yl)-(3-hydroxy-phenyl)-methyl]-benzoyl}-piperidin-4-ylamino)-methyl]-benzoic acid]	1.2 nM	4.6 nM	6.74 nM	0% 10 mg/kg IV	–
C=CCN1C[C@H](C)N(C(c2cccc(O)c2)c2cccc(C(=O)N3CCCN(CCCCCC(=O)O)CC3)c2)C[C@H]1C (stereo partly shown)	5.3 nM	89.9 nM	19 nM	0% 10 mg/kg IV	–
C=CCN1C[C@H](C)N([C@@H](c2cccc(O)c2)c2cccc(C(=O)N3CCN(Cc4ccc(C(=O)OC)cc4)CC3)c2)C[C@H]1C [Example 91, 4-(4-{3-[(R)-((2S,5R)-4-Allyl-2,5-dimethyl-piperazin-1-yl)-(3-hydroxy-phenyl)-methyl]-benzoyl}-piperazin-1-ylmethyl)-benzoic acid methyl ester]	2.7 nM	6.5 nM	23.1 nM	70% 10 mg/kg IV	–
C[C@@H]1CN([C@@H](c2cccc(O)c2)c2cccc(C(=O)N3CCN(CC(=O)O)CC3)c2)[C@@H](C)CN1Cc1cccc(F)c1 [Example 67, (4-{3-[(R)-[(2S,5R)-4-(3-Fluoro-benzyl)-2,5-dimethyl-piperazin-1-yl]-(3-hydroxy-phenyl)-methyl]-benzoyl}-piperazin-1-yl)-acetic acid]	–	10.7 nM	2.82 nM	0% 10 mg/kg IV	–
C=CCN1C[C@H](C)N(C(c2cccc(O)c2)c2cccc(C(=O)N3CCCN(Cc4ccccc4C(=O)O)CC3)c2)C[C@H]1C (stereo partly shown)	–	1.4 nM	2.2 nM	40% 10 mg/kg IV	–
CCOC(=O)CCCCCCN1CCN(C(=O)c2cccc([C@H](c3cccc(O)c3)N3C[C@@H](C)N(Cc4ccccc4)C[C@@H]3C)c2)CC1 [Example 110, 7-(4-{3-[(R)-((2S,5R)-4-Benzyl-2,5-dimethyl-piperazin-1-yl)-(3-hydroxy-phenyl)-methyl]-benzoyl}-piperazin-1-yl)-heptanoic acid ethyl ester]	–	–	18.8 nM	70% 10 mg/kg IV	–
C[C@@H]1CN([C@@H](c2cccc(O)c2)c2cccc(C(=O)N3CCN(Cc4ccc(C(=O)O)cc4)CC3)c2)[C@@H](C)CN1CC1CC1 [Example 103, 4-(4-{3-[(R)-((2S,5R)-4-Cyclopropylmethyl-2,5-dimethyl-piperazin-1-yl)-(3-hydroxy-phenyl)-methyl]-benzoyl}-piperazin-1-ylmethyl)-benzoic acid]	–	84.7 nM	187 nM	–	0% 60 mg/kg PO
C[C@@H]1CN(C(c2cccc(O)c2)c2cccc(C(=O)N3CCCN(CCCCC(=O)O)CC3)c2)[C@@H](C)CN1CC1CC1 (stereo partly shown)	62.1 nM	558 nM	77.5 nM	–	–
C=CCN1C[C@H](C)N(C(c2cccc(O)c2)c2cccc(C(=O)N3CCCN(CCCCCCC(=O)O)CC3)c2)C[C@H]1C (stereo partly shown)	5.6 nM	8.3 nM	34.9 nM	–	–
C[C@@H]1CN([C@@H](c2cccc(O)c2)c2cccc(C(=O)N3CCN(Cc4ccc(C(=O)O)cc4)CC3)c2)[C@@H](C)CN1Cc1cccc(O)c1 [Example 104, 4-(4-{3-[(R)-[(2S,5R)-4-(3-Hydroxy-benzyl)-2,5-dimethyl-piperazin-1-yl]-(3-hydroxy-phenyl)-methyl]-benzoyl}-piperazin-1-ylmethyl)-benzoic acid]	0.99 nM	19.4 nM	2.06 nM	–	–
CCOC(=O)CCCCCN1CCCN(C(=O)c2cccc(C(c3cccc(O)c3)N3C[C@@H](C)N(Cc4ccccc4)C[C@@H]3C)c2)CC1 (stereo partly shown)	3.7 nM	23.4 nM	29.6 nM	–	–
C=CCN1C[C@H](C)N([C@@H](c2cccc(O)c2)c2cccc(C(=O)N(C)CC(=O)O)c2)C[C@H]1C [Example 152, ({3-[(R)-((2S,5R)-4-Allyl-2,5-dimethyl-piperazin-1-yl)-(3-hydroxy-phenyl)-methyl]-benzoyl}-methyl-amino)-acetic acid]	0.7 nM	–	2.36 nM	0% 10 mg/kg IV	–
C[C@@H]1CN(C(c2cccc(O)c2)c2cccc(C(=O)N3CCCN(CCCCCCC(=O)O)CC3)c2)[C@@H](C)CN1CC1CC1 (stereo partly shown)	50.6 nM	40.7 nM	339 nM	–	–
C=CCN1C[C@H](C)N([C@@H](c2cccc(O)c2)c2cccc(C(=O)N3CCN(CCCCCCC(=O)O)CC3)c2)C[C@H]1C [Example 109, 7-(4-{3-[(R)-((2S,5R)-4-Allyl-2,5-dimethyl-piperazin-1-yl)-(3-hydroxy-phenyl)-methyl]-benzoyl}-piperazin-1-yl)-heptanoic acid]	1.9 nM	–	7.48 nM	0% 10 mg/kg IV	–
CCOC(=O)CCCCCCN1CCCN(C(=O)c2cccc(C(c3cccc(O)c3)N3C[C@@H](C)N(Cc4cccc(F)c4)C[C@@H]3C)c2)CC1 (stereo partly shown)	13.3 nM	7 nM	245 nM	–	–
C[C@@H]1CN(C(c2cccc(O)c2)c2cccc(C(=O)N3CCCN(CCCC(=O)O)CC3)c2)[C@@H](C)CN1CC1CC1 (stereo partly shown)	527 nM	26.5 nM	60.9 nM	–	–
C[C@@H]1CN([C@@H](c2cccc(O)c2)c2cccc(C(=O)N3CCN(CCCCC(=O)O)CC3)c2)[C@@H](C)CN1CC1CC1 [Example 90, 5-(4-{3-[(R)-((2S,5R)-4-Cyclopropylmethyl-2,5-dimethyl-piperazin-1-yl)-(3-hydroxy-phenyl)-methyl]-benzoyl}-piperazin-1-yl)-pentanoic acid]	32.5 nM	409 nM	46.2 nM	–	–
C=CCN1C[C@H](C)N([C@@H](c2cccc(O)c2)c2cccc(C(=O)N3CCC[C@H]3C(=O)O)c2)C[C@H]1C [Example 144, 1-{3-[(R)-((2S,5R)-4-Allyl-2,5-dimethyl-piperazin-1-yl)-(3-hydroxy-phenyl)-methyl]-benzoyl}-pyrrolidine-2-carboxylic acid]	0.62 nM	–	1.15 nM	0% 10 mg/kg IV	–
COCCN1C[C@H](C)N([C@@H](c2cccc(O)c2)c2cccc(C(=O)N3CCN(Cc4ccc(C(=O)O)cc4)CC3)c2)C[C@H]1C [Example 105, 4-[4-(3-{(R)-(3-Hydroxy-phenyl)-[(2S,5R)-4-(2-methoxy-ethyl)-2,5-dimethyl-piperazin-1-yl]-methyl}-benzoyl)-piperazin-1-ylmethyl]-benzoic acid]	32 nM	88.6 nM	30.6 nM	–	–
C=CCN1C[C@H](C)N([C@@H](c2cccc(O)c2)c2cccc(C(=O)N(C)CC(=O)OCC)c2)C[C@H]1C [Example 151, ({3-[(R)-((2S,5R)-4-Allyl-2,5-dimethyl-piperazin-1-yl)-(3-hydroxy-phenyl)-methyl]-benzoyl}-methyl-amino)-acetic acid ethyl ester]	–	0.5 nM	1.6 nM	100% 10 mg/kg IV	–
C=CCN1C[C@H](C)N(C(c2cccc(O)c2)c2cccc(C(=O)N3CCCN(Cc4cccc(C(=O)O)c4)CC3)c2)C[C@H]1C (stereo partly shown)	–	5.5 nM	6.23 nM	0% 10 mg/kg IV	–
C[C@@H]1CN(C(c2cccc(O)c2)c2cccc(C(=O)N3CCCN(CCCCCCC(=O)O)CC3)c2)[C@@H](C)CN1Cc1cccc(F)c1 (stereo partly shown)	141 nM	222 nM	109 nM	–	–
C[C@@H]1CN([C@@H](c2cccc(O)c2)c2cccc(C(=O)N3CCN(CCCCCC(=O)O)CC3)c2)[C@@H](C)CN1Cc1cccc(F)c1 [Example 99, 6-(4-{3-[(R)-((2S,5R)-4-(3-Fluorobenzyl)-2,5-dimethyl-piperazin-1-yl)-(3-hydroxy-phenyl)-methyl]-benzoyl}-piperazin-1-yl)-hexanoic acid]	15.7 nM	–	10.6 nM	0% 10 mg/kg IV	–
CCOC(=O)CN1CCN(C(=O)c2cccc([C@H](c3cccc(O)c3)N3C[C@@H](C)N(CC4CC4)C[C@@H]3C)c2)CC1 [Example 70, (4-{3-[(R)-((2S,5R)-4-Cyclopropylmethyl-2,5-dimethyl-piperazin-1-yl)-(3-hydroxy-phenyl)-methyl]-benzoyl}-piperazin-1-yl)-acetic acid ethyl ester]	3.5 nM	8.7 nM	55.4 nM	–	–
